One series deals with histamine inhalation. Details: method as in PMID 16084046. Conditions: guinea pigs; cited from earlier work.
A further series deals with guinea pig tracheas. Details: method as in PMID 16084046. Conditions: cited from earlier work.
On the set-up of series [1]: method as in PMID 598421. To be noted: cited from earlier work.
The nature of series [2]: Second screening: 60 mL of guaco syrup spiked with 100, 500, 1000 or 1500 mg of COU. The series is classed as in vivo, human. The procedure: All the volunteers fasted for 8 h prior to the administration of guaco syrup and blood collection. Blood samples (3.0 mL) were collected (using flexible catheter 18–20G) before the syrup administration (zero min) and at fifteen time points after the syrup administration (10, 20, 30, 45, 60, 75, 90, 120, 150, 180, 240, 360, 480, 540 and 600 min). The anticoagulant used was tetrasodium edetate. All the samples were immediately centrifuged at 4000 rpm (5.0 min, room temperature), and the plasma was aliquoted and frozen at -40°C until analysis. The pharmacokinetic analysis was performed using a non-compartmental model, considering an extravascular administration route and using WinNonlin Professional software, version 5.3. The relationships among the areas under the curves (r areas = AUC0-t/AUC0-inf), were used to confirm the suitability of the experimental design. Values greater than 0.8 indicated an appropriate experimental design.

Series [3] in a line: Stability of stock solutions and working standard solutions. In kind it is physicochemical. Conditions: for Mean recovery: n = 8, ± SD. The procedure: The stability of the stock solutions (1 mg/mL of each analyte and ISs) was evaluated after 30 days of storage in a refrigerator (4°C, amber bottles). The stored solutions were diluted with acetonitrile/water (70:30 v/v) to obtain the same concentration levels as the short-term stability assay. The stability of the stock solutions was evaluated by comparing the mean recovery of the analytes and IS obtained from stored samples to the mean values obtained with freshly prepared samples, at the same concentration levels. The stability of the working standard solutions was assessed using a procedure similar to that described for stock solution stability. […]

Series [4] has as its system allergic airway inflammation. Details: method as in PMID 19289114. To be noted: mice, 60 mg/kg; cited from earlier work.
The mark [5] stands for this setting: 8 h at room temperature, high level (Coumarin 1250.0, 7-hydroxycoumarin 750.0, o-coumaric acid 750.0, Kaurenoic acid 500.0 ng/mL).
The mark [6] stands for this setting: 8 h at room temperature, high level, stored vs freshly prepared.
[7] abbreviates: 8 h at room temperature, low level (Coumarin 50.0, 7-hydroxycoumarin 12.5, o-coumaric acid 25.0, Kaurenoic acid 10.0 ng/mL).
Where [8] appears, read: 8 h at room temperature, low level, stored vs freshly prepared.
The mark [9] stands for this setting: 30 days at 4 °C (stock solutions), high level (1250.0, 750.0, 750.0, 500.0 ng/mL).
Setting [10] is: 30 days at 4 °C (stock solutions), low level (50.0, 12.5, 25.0, 10.0 ng/mL).

Structures are written as SMILES. Values after ≈ are worked out from the molar mass of the structure shown. Like-named read-outs stand apart in the source and are kept apart here.

For orientation: bioavailability means dose-corrected exposure relative to a reference, in per cent. As to `O=c1ccc2ccccc2o1` [COU, 1,2 benzopyrone], in the series on histamine inhalation, the “AD50 (adequate dose protecting 50% of the tested animals)” value is reported as 75 mg/kg. Moreover, the entries for the “EC50, relaxing effect” value in the series with guinea pig tracheas (guinea pig tracheas pre-contracted with carbachol) and with guinea pig tracheas (guinea pig tracheas pre-contracted with histamine) were 33.4 µg/mL (≈ 229 µM) and 35.0 µg/mL (≈ 239 µM), respectively. Further, the bioavailability in series [1] was 3.4%. The “time of peak absorption after syrup administration” value in series [2] (all four volunteers, 100, 500, 1000 and 1500 mg COU) stood at 10 min. The Tmax in series [2] (both sexes, human, plasma, oral, read-out: time of peak concentration in plasma) is 0.75 to 2 h. Besides, the concentration at 10 min in series [2] (human, plasma, oral, 100 mg dosage, 10 min after syrup administration) worked out at 22.1 ng/mL. The Mean recovery in series [3] (setting [5]) stood at 1293.1 ± 30.5 ng/mL; in series [3] (setting [7]), 54.5 ± 3.2 ng/mL; in series [3] (setting [9]), 1173.4 ± 67.9 ng/mL; in series [3] (setting [10]), 56.1 ± 2.3 ng/mL. In addition, the RE in series [3] (setting [6]) was 3.45%; in series [3] (setting [8]), 8.94%; in series [3] (30 days at 4 °C, high level), -6.13%; in series [3] (30 days at 4 °C, low level) it was 12.27%.

Consider `O=C(O)/C=C/c1ccccc1O` [OCA, o-coumaric acid], for which the Mean recovery amounted to 718.0 ± 48.0 ng/mL in series [3] (setting [5]), 22.6 ± 1.3 ng/mL in series [3] (setting [7]), 640.8 ± 45.6 ng/mL in series [3] (setting [9]) and 22.8 ± 1.2 ng/mL in series [3] (setting [10]). Besides, the RE is reported as -4.26% in series [3] (setting [6]); -9.44% in series [3] (setting [8]); -14.55% in series [3] (30 days at 4 °C, high level); -8.89% in series [3] (30 days at 4 °C, low level).

Consider `O=c1ccc2ccc(O)cc2o1` [7-HCOU, 7-hydroxycoumarin], for which, in series [4], the “attenuation of allergic airway inflammation” value was “significant attenuation”. Besides, the Mean recovery in series [3] (setting [5]) is listed as 757.9 ± 5.6 ng/mL; in series [3] (setting [7]) it was 11.6 ± 0.6 ng/mL; in series [3] (setting [9]), 791.8 ± 60.5 ng/mL; in series [3] (setting [10]), 11.4 ± 0.9 ng/mL. Also, the RE is 1.06% in series [3] (setting [6]); -7.41% in series [3] (setting [8]); 5.57% in series [3] (30 days at 4 °C, high level); -8.02% in series [3] (30 days at 4 °C, low level).

Source of the values: publication PMC4355590, “A Kinetic Study of the Main Guaco Metabolites Using Syrup Formulation and the Identification of an Alternative Route of Coumarin Metabolism in Humans” (PLoS ONE, 2015).
